# Source: patent publication US12048691B2 (SPERO THERAPEUTICS, INC., priority 2020, dated 2024)
# Like-named read-outs stand apart in the source and are kept apart here.
# What was measured:
# [1] = system: bacteremia secondary to cUTI/AP; assay: Efficacy in patients with cUTI or acute pyelonephritis and associated bacteremia; assay type: in vivo, human
# Text: The objective of this analysis was to evaluate the efficacy of TBP-PI-HBr in the subset of patients with associated bacteremia from a study of patients with either cUTI or acute pyelonephritis.
# [2] = system: AmpC production in Enterobacterales; assay: AmpC induction (nitrocefin hydrolysis after drug exposure); assay type: cell-based; details: tebipenem/imipenem except for C. koseri and S. marcescens
# Protocol: (§1) AmpC induction was determined as follows. Baseline MIC values were determined by broth microdilution method, as described above, for 9 Gram-negative isolates with basal expression of ampC. These isolates were cultured overnight on blood agar plates. A standardized inoculum made from fresh overnight plate cultures was added to flasks containing 50 mL of Luria-Bertani (LB) broth and incubated by shaking at 37° C. to OD600 of 0.3. […] These cultures were incubated under shaking conditions. A 40 mL aliquot of bacterial cultures was sampled at time 0 and 2 hours after drug exposures. Each sample aliquot was harvested by centrifugation and the supernatant was discarded.
# (§2) Protein crude extract preparations were made in 200 μL of BugBusterR (Novagen, Darmstadt, Germany) per manufacturer instructions and cell debris was removed by centrifugation. Protein concentrations were determined in each crude extract by standard methodologies.
# (§3) AmpC induction was measured by the intensity of β-lactamase hydrolytic activity against 0.1 mM nitrocefin in 0.1 M phosphate buffer at pH 7.0 using spectrophotometry at 482 nm (Δ absorbance/minute/mg of protein). The drug exposure conditions that caused a >4-fold increase in hydrolysis activity compared to the baseline were subjected to postinduction experiments. Briefly, cells were grown under the same conditions as before and tested for susceptibility by broth microdilution.
# [3] = system: AmpC production in P. aeruginosa; assay: as above; assay type: cell-based
# Protocol: as §1, §2, §3
# [4] = system: Vancomycin-susceptible Enterococcus faecalis; assay: Broth microdilution against Gram-positive clinical isolates; assay type: cell-based; details: Enterococcus faecalis; E. faecalis, 31 isolates
# Protocol: (§4) The purpose of this study was to investigate the in vitro activity of tebipenem and comparator agents, including ertapenem and meropenem, against a recent collection of Gram-positive isolates associated with clinical infections. The susceptibility of 580 Gram-positive organisms were tested, including: Methicillin-susceptible Staphylococcus aureus (MSSA, 489 isolates), Methicillin-susceptible Staphylococcus epidermidis (MSSE, 31), other methicillin-susceptible coagulase-negative staphylococci (MSCONS, 29), and Vancomycin-susceptible Enterococcus faecalis (31). Bacterial species were identified by JMI Laboratories using standard microbiology methods and matrix-assisted laser desorption ionization-time of flight mass spectrometry (Bruker Daltonics, Bremen, Germany). The isolates were collected in 2018 and 2019 as part of the SENTRY surveillance program and selected to be representative of these species with 45.0% from the United States, 44.3% from Europe, 5.3% from the Asia-Pacific region, and 5.3% from Latin America. Isolates are primarily from pneumonia in hospitalized patients (498 isolates; 85.9%), urinary tract infections (42 isolates; 7.2%), and bloodstream infections (38 isolates; 6.6%). Isolates were tested in a central laboratory (JMI Laboratories) for antimicrobial susceptibility using the CLSI M07 (2018) reference broth microdilution method. JMI Laboratories produced frozen-form 96-well panels and used cation-adjusted Mueller-Hinton broth (CA-MHB) as the testing medium. All categorical interpretations used CLSI M100 (2021) and EUCAST v10.0 (2021) breakpoint criteria, where published. Quality control organisms include Escherichia coli ATCC 25922, Escherichia coli ATCC 35218, Enterococcus faecalis ATCC 29212, Pseudomonas aeruginosa ATCC 27853, and Staphylococcus aureus ATCC 29213 were tested concurrently with clinical isolates.
# [5] = system: Methicillin-susceptible Staphylococcus aureus (MSSA); assay: as above; assay type: cell-based; details: Staphylococcus aureus, 489 isolates
# Protocol: as §4
# [6] = system: Methicillin-susceptible Staphylococcus epidermidis (MSSE); assay: as above; assay type: cell-based; details: Staphylococcus epidermidis, 31 isolates
# Protocol: as §4
# [7] = system: Enterobacterales overproducing AmpC; assay: Broth microdilution susceptibility of isolates overexpressing AmpC; assay type: cell-based
# Protocol: Frozen-form broth microdilution panels were manufactured by JMI Laboratories and contained cation-adjusted Mueller-Hinton broth. Quality assurance was performed by sterility checks, colony counts, and testing CLSI recommended quality control reference strains.
# E. coli [8] = assay: Broth microdilution MIC against characterized subsets of UTI E. coli (2018-2020); assay type: cell-based; details: for MIC50 / MIC90: Escherichia coli; for MIC50: read-out: MIC50; for MIC90: read-out: MIC90
# Text: Isolates were collected from medical centers in all 9 US Census Regions and tested by broth microdilution. MIC interpretation was based on CLSI. Isolates that met MIC criteria were subjected to genome sequencing, followed by screening of extended-spectrum b-lactamase (ESBL) genes and epidemiology typing (MLST).
# P. mirabilis = assay: Broth microdilution against US UTI pathogens 2019-2020; assay type: cell-based; details: P. mirabilis (235), cefuroxime: oral breakpoint
# Protocol: (§5) This study assessed the in vitro activity of tebipenem and comparator agents against Enterobacterales (ENT) responsible for UTIs in the US during 2019-2020. A total of 3,576 ENT recovered from urine samples during the 2019-2020 STEWARD Surveillance Program were included in the study. Isolates were collected from medical centers in all 9 US Census Regions and were centrally tested for susceptibility by reference broth microdilution method. MIC interpretation was performed based on CLSI criteria.
# Enterobacterales (ENT) = assay: as above; assay type: cell-based
# Protocol: as §5
# K. pneumoniae = assay: as above; assay type: cell-based; details: K. pneumoniae (511)
# Protocol: as §5
# E. coli [9] = assay: as above; assay type: cell-based; details: E. coli (2,339); cefuroxime: oral breakpoint
# Protocol: as §5
smiles,measurement,setting,value
"C[C@@H](O)[C@H]1C(=O)N2C(C(=O)O)=C(S[C@@H]3CN[C@H](C(=O)Nc4cccc(C(=O)O)c4)C3)[C@H](C)[C@H]12 [Ertapenem, ertapenem]",Clinical cure rate,[1]; EOT,100%
same,Clinical cure rate,[1]; TOC,94.3%
same,Overall response rate,[1]; end-of-treatment (EOT),96.2%
same,Clinical cure rate,[1]; late-follow-up (LFU) visit,approximately 89%
same,Overall response rate,[1]; test-of-cure (TOC),66.0%
same,effect of exposure on production of AmpC,[2],did not seem to affect production of AmpC
same,effect of exposure on production of AmpC,[3],not observed
same,MIC90,[4],> 8 µg/mL
same,MIC90,[5],0.25 µg/mL
same,MIC90,[6],0.5 µg/mL
same,MIC50,[7],0.12 µg/mL
same,MIC90,[7],2 µg/mL
same,CLSI %1,[7]; Enterobacterales (36),8.3%
same,CLSI % R,[7]; Enterobacterales (36),11.1%
same,CLSI % S,[7]; Enterobacterales (36),80.6%
same,MIC50,[7]; Enterobacterales (36),0.12 μ/ml
same,MIC90,[7]; Enterobacterales (36),2 μ/ml
same,% susceptible by CLSI M100 criteria,E. coli [8]; CMYb (33),90.6%
same,% susceptible by CLSI M100 criteria,E. coli [8]; CTX-M a,98.9%
same,% susceptible by CLSI M100 criteria,E. coli [8]; DHA(7),85.7%
same,% susceptible by CLSI M100 criteria,E. coli [8]; ESBL (360),97.4%
same,MIC50,E. coli [8]; CMYb (33),0.06 µg/mL
same,MIC50,E. coli [8]; CTX-M a,0.03 µg/mL
same,MIC90,E. coli [8]; CTX-M a,0.12 µg/mL
same,MIC50,E. coli [8]; DHA(7),0.06 µg/mL
same,MIC50,E. coli [8]; ESBL (360),0.03 µg/mL
same,MIC90,E. coli [8]; ESBL (360),0.12 µg/mL
same,MIC50,E. coli [8]; Non-ESBL (2035),≤ 0.008 µg/mL
same,MIC90,E. coli [8]; Non-ESBL (2035),0.015 µg/mL
same,MIC50,E. coli [8]; Non-ST131 (203),0.015 µg/mL
same,MIC90,E. coli [8]; ST131 (222),0.06 µg/mL
same,% susceptible by CLSI M100 criteria,E. coli [8]; Non-ESBL (2035),100%
same,% susceptible by CLSI M100 criteria,E. coli [8]; Non-ST131 (203),97.0%
same,% susceptible by CLSI M100 criteria,E. coli [8]; ST131 (222),99.1%
same,% susceptible,E. coli [8]; against the various subsets,≥ 97.0%
same,susceptibility rates,E. coli [8]; isolates carrying plasmid AmpC,85.7-90.6%
same,% susceptible; CLSI,P. mirabilis,(100.0) %
same,% susceptible; CLSI,P. mirabilis; listed as ERT,100.0%
same,MIC50,Enterobacterales (ENT),≤ 8 µg/mL
same,MIC90,"Enterobacterales (ENT); All (3,567)",30 µg/mL
same,% susceptible; CLSI,"Enterobacterales (ENT); All (3,567), cefuroxime: oral breakpoint",(98.5) %
same,MIC90,"Enterobacterales (ENT); against ENT, EC, and KPN",0.03 µg/mL
same,% susceptible; CLSI,K. pneumoniae; cefuroxime: oral breakpoint,(96.3) %
same,MIC50,"K. pneumoniae; Klebsiella pneumoniae, read-out: MIC50",≤ 8 µg/mL
same,% susceptible; CLSI,E. coli [9],(99.6) %
